The values below come from patent publication US20230076792A1, “SEQUENTIAL TARGETING IN CROSSLINKING NANO-THERANOSTICS FOR TREATING BRAIN TUMORS” (The Regents of the University of California, priority 2019, published 2023).

Data set [1] is described as follows: In vitro drug release profile (dialysis, pH 7.4 then pH 6.5). It is filed as physicochemical. To be noted: pH 7.4 PBS. As to the method: Drug release profile. STICK-NP@Cy@Gd was prepared to evaluate the in vitro release profile using dialysis cassettes (Pierce Chemical Inc.) with a 3 kDa MWCO. To make an ideal sink condition, 10 g charcoal was added in the release medium. The cassettes were dialyzed against PBS (pH7.4) at room temperature. The PBS at pH 7.4 was replaced with fresh PBS at pH 6.5 at 4 h. The concentration of CY7.5 and Gd-DTPA remaining in the dialysis cassette at various time points was measured by UV-vis spectroscopy and ICP-MS.

A further data set deals with DIPG (PDX) cells. In words: Anti-cancer efficacy in orthotopic PDX DIPG mouse model. The data set is classed as in vivo, SCID mouse. The method, then:
Anti-cancer efficacy study in orthotopic brain tumor models. […] After confirming the establishment of brain tumors, mice were randomly assigned into different groups. Tumor size was monitored using advanced T1-weight imaging (TR/TE=300 ms/15 ms). For imaging study, mice were injected with 250 mg/kg Gd-DTPA. Tumor size of DIPG model was calculated from the aggregation of tumor area in different MRI slices, 1 mm thick. Tumor size of GBM model was calculated as the followed equation: […]
where W is the width of the tumor and the L is the length of the tumor (W<L). One mouse per group was sacrificed on day 12 after MRI imaging, and organs and brain with tumors were harvested for histopathology evaluation. Animals were continuously monitored their appearance, behavior, and body weight. Once the body weight loss>20%, animals were considered as reaching the humane endpoint.

The nature of data set [2]: Pharmacokinetic study in jugular vein catheterized rats. The data set is classed as in vivo. To be noted: Cy7.5 10 mg/kg, serum. As to the method: FIGS. 2A and 2B show cumulative release profile for both hydrophilic (Gd-DTPA) (FIG. 2A) and hydrophobic (Cy7.5) payloads (FIG. 2B) from STICK-NPs and NM in the presence of different pH. A mixture of NM and free Gd was used in (FIG. 2A), as Gd could not be loaded into NM. Drug release study was performed initially at pH 7.4 PBS (grey areas) and was then subjected to pH 6.5 after 4 h (pink areas). Samples were collected at different time points and were measured by inductively coupled plasma mass spectrometry (ICP-MS) for Gd-DTPA level and fluorescence spectrometer for the concentration of Cy7.5. (n=3). […] (n=3) FIG. 2E show the intensity-weighted distribution changes of STICK-NPs in the presence of different concentrations of glucose (mmol/L). Of note, normal human serum glucose level ranges from 3.9 to 5.5 mmol/L. FIG. 2F show pharmacokinetic profiles of free Cy7.5, STICK-NP@Cy, and NM@Cy (Cy7.5, 10 mg/kg) in jugular vein catheterized rats (n=3). Serum was collected at different time points, and drug concentrations were measured based on fluorescence signals. The error bars were the standard deviation (SD).

The next data set relates to U87-MG cells. In words: Cellular uptake assay in brain tumor cells. It is filed as cell-based, human. To be noted: pH 6.5 versus pH 7.4, Cy7.5 0.1 mg/mL. As to the method:
To study the cellular uptake of STICK-NP@Cy, the bEnd.3 cells or U87-MG cells were seeded on 8-well chamber slides (10000 cells/well) and treated with STICK-NP@Cy and other controls (0.1 mg/mL Cy7.5) for 1 hour and washed by PBS three times. Cells were then fixed and stained with DAPI. Cell imaging was acquired using a Keyence fluorescence microscope. For quantitative study, bEnd.3 cells or U87-MG cells (10000 cells/well) were seeded in 96 well plate for overnight and then treated the cells with STICK-NP@Cy and other controls (0.1 mg/mL Cy7.5). Cells were harvested at 0 h, 1 h, 2 h, 3 h, and 4 h and washed with PBS. Total cells were lysed with 100 μL DMSO and the fluorescence intensity was measured by fluorescence spectrophotometer (RF-6000, Shimazu, Japan). To inhibit GLUT1 activity, bEnd.3 cells were pretreated with 40 μM of WZB-117 for 24 h before incubation with STICK-NP@Cy. For the tumor uptake study, U87-MG cells were pretreated with 40 μM of AZT for 24 h to alter the expression of surface sialic acid. To block the interaction, U87-MG cells were pre-incubated with excess free CBA (80 μM) for 24 h to compete for the binding sites with STICK-NP@Cy (pH 6.5) through the CBA targeting moiety in the secondary smaller micelles.

Turning to `CNC[C@H](O)[C@@H](O)[C@H](O)[C@H](O)CO.CNC[C@H](O)[C@@H](O)[C@H](O)[C@H](O)CO.O=C([O-])CN(CCN(CC(=O)[O-])CC(=O)O)CCN(CC(=O)[O-])CC(=O)O.[Gd+3]` [free Gd-DTPA, gadopentetic acid], the “Release of Gd-DTPA” value in data set [1] is given as “released immediately”.
`CC[C@]1(O)C[C@H]2CN(CCc3c([nH]c4ccccc34)[C@@](C(=O)OC)(c3cc4c(cc3OC)N(C=O)[C@H]3[C@@](O)(C(=O)OC)[C@H](OC(C)=O)[C@]5(CC)C=CCN6CC[C@]43[C@@H]65)C2)C1` [free VCR, vincristine]: the “Effect on tumor growth” value in the data set on DIPG (PDX) cells (MRI, compared to PBS control) is on record as “minimal inhibition effects”. Besides, in the data set on DIPG (PDX) cells (mouse, in vivo), the “Extension of survival compared to PBS control” value is listed as “failed to extend the survival” and the “Survival of mice beyond day 12” value was “died after day 12”.
Take cyanine 7.5 [Free Cy]: in data set [2], the “AUC(0-∞)” value came to 51400 ± 13400 ng·h/mL; the Cmax (usually the highest concentration seen after dosing) is 4190 ± 400 ng/mL; the Vz (as a rule, a proportionality between amount in the body and measured concentration, not a real space) came out at 2.46 ± 0.51 L/kg; the t1/2z came to 16.92 ± 0.78 h. In addition, the “U87-MG cell uptake after pretreatment with pH 6.5” value with U87-MG cells was “no significant enhancement”.
